Experimental data reported in patent US9334299B2, “Water-soluble camptothecin derivative, pharmaceutical composition and use thereof” (Hunan Fangshenghuamei Medical Tech. Co. Ltd., priority 2011, dated 2016).
Entries after “also recorded” stand apart in the source; their conditions may differ. Read-outs that look alike come from different tables or passages of the source.

Assays:
Assay type in all cases: cell-based
H1693 cells = experiment: Cell viability (cell killing) assay, H1693 cells; conditions: compared with CPT, floxuridine, etoposide (FIGS. 1-2)
[1] = system: H146 (small cell lung cancer) cells; experiment: CellTiter-Glo cell viability assay, H146 cells; conditions: for cell killing / dose-dependent cell death in H146 cells, result in words: compared with CPT, floxuridine, etoposide (FIGS. 4-5, Table 3); for viability at 0.1 µM / viability at 1 µM / viability at 10 µM: Homo sapiens, read-out: H146 cell viability after 48 hours of treatment
Source text: (§1) To determine the ability of Compound Dix-905 (also referred as Compound 905) to kill cancer cells, we performed a cell viability assay via CellTiter-Glo kit (Promega) using various cell lines. The kit measures the ATP levels via an enzymatic Luciferase assay. Viable cells, having normal metabolic rates and producing normal levels of ATP, will is have a high turnover of Luciferase substrates, which requires ATP for the enzymatic reaction and emits luminescent signals. By contrast, dying cells will have lower outcome of luminescent signals since their metabolic functions are diminished. The emitted luminescent signals will then be captured by a luminometer.
(§2) To perform the viability assay, small cell lung cancer cells (ATCC catalog No. H146), breast cancer cells (ATCC catalog No. MDAMB231) or colon cancer cells (ATCC catalog No. HCT116) were seeded in 96 wells and treated via Compound Dix-905 and other anti-cancer drugs for a time period of 24, 48, 72 hours. At each respective time point, cells were mixed with Cell Titer Glow reagents for 1 h and evaluated for luminescent signals.
In the “CPT” group, the H146 (small cell lung cancer) cells were treated with CPT (dissolved in DMSO) in 4 concentrations (0, 0.1, 1.0, 10 μM, respectively) for 48 hours; In the Dix-902, Dix-904 and Dix-906 groups, H146 (small cell lung cancer) cells were treated respectively with the corresponding compounds (dissolved in a saline solution) in 4 concentrations (0, 0.1, 1.0, 10 μM, respectively) for 48 hours.

[2] = system: HCT116 (colon cancer) cells; experiment: CellTiter-Glo cell viability assay, HCT116 cells; conditions: for cell killing / dose-dependent cell death in HCT116 cells, result in words: compared with CPT, 5-FU, Etoposide (FIGS. 7-8, Table 5); for viability at 0.1 µM / viability at 1 µM / viability at 10 µM: Homo sapiens, HCT-116, 48 hours, read-out: HCT116 cell viability after 48 hours of treatment
Source text: as §1, §2
In the “CPT” group, the is HCT116 cells were treated with CPT (dissolved in DMSO) in 4 concentrations (0, 0.1, 1.0, 10 μM, respectively) for 48 hours. In the Dix-902, Dix-904 and Dix-906 groups, HCT116 cells were treated respectively with the corresponding compounds (dissolved in a saline solution) in 4 concentrations (0, 0.1, 1.0, 10 μM, respectively) for 48 hours.

[3] = system: Caspase 3/7 in H146 cells; experiment: Caspase-Glo 3/7 caspase activation assay, H146 cells; conditions: FIG. 6
Protocol: (§3) For caspase activation, similar assays could be performed using the Caspase-Glo 3/7kit from Promega after cells were treated with respective agents for various time points. The mechanism of Caspase 3/7 Glow assay is by using Caspase 3/7 substrate fused with Luciferase substrate, which could be cleaved by activated Caspase 3/7. The released Luciferase substrate then undergoes an enzymatic reaction and emits luminescent signals. In contrast to the viability assay, the limiting step for this assay is caspase activation. Dying cells bearing the activated Casapses will have a high readout of luminescent signals in a luminometer.

[4] = system: Caspase 3/7 in H1693 cells; experiment: Caspase-Glo 3/7 caspase activation assay, H1693 cells; conditions: FIG. 3
Protocol: as §3

[5] = system: MDAMB231 (breast cancer) cells; experiment: CellTiter-Glo cell viability assay, MDAMB231 cells; conditions: Homo sapiens, read-out: MDAMB231 cell viability after 48 hours of treatment
Source text: as §1, §2
In the “CPT” group, the MDAMB231 (breast cancer) cells were treated with CPT (dissolved in DMSO) in 4 concentrations (0, 0.1, 1.0, 10 μM, respectively) for 48 hours. In the Dix-902, Dix-904 and Dix-906 groups, MDAMB231 (breast cancer) cells were treated respectively with the corresponding compounds (dissolved in a saline solution) in 4 concentrations (0, 0.1, 1.0, 10 μM, respectively) for 48 hours.

| SMILES | cell killing / dose-dependent cell death in H146 cells, result in words [1] | cell killing / dose-dependent cell death in HCT116 cells, result in words [2] | viability at 0.1 µM ([1]; NCI-H146, 0.1 μM, 48 hours) [%] | viability at 1 µM ([1]; NCI-H146, 1.0 μM, 48 hours) [%] | viability at 10 µM ([1]; NCI-H146, 10 μM, 48 hours) [%] | viability at 0.1 µM [2] [%] | viability at 1 µM [2] [%] | viability at 10 µM [2] [%] | viability at 0.1 µM ([5]; MDA-MB-231, 0.1 μM, 48 hours) [%] | viability at 1 µM ([5]; MDA-MB-231, 1.0 μM, 48 hours) [%] | viability at 10 µM ([5]; MDA-MB-231, 10 μM, 48 hours) [%] | viability at 0.1 µM ([1]; NCI-H146, 48 h) [%] | viability at 1 µM ([1]; NCI-H146, 48 h) [%] | viability at 10 µM ([1]; NCI-H146, 48 h) [%] | viability at 0.1 µM ([5]; MDA-MB-231, 48 h) [%] | viability at 1 µM ([5]; MDA-MB-231, 48 h) [%] | viability at 10 µM ([5]; MDA-MB-231, 48 h) [%] | further results |
| --- | --- | --- | --- | --- | --- | --- | --- | --- | --- | --- | --- | --- | --- | --- | --- | --- | --- | --- |
| CC[C@@]1(OP(=O)(O)OC[C@H]2O[C@@H](n3cc(F)c(=O)[nH]c3=O)C[C@@H]2O)C(=O)OCc2c1cc1n(c2=O)Cc2cc3ccccc3nc2-1 [Dix-905] | cell killing response in H146 better than that of CPT; also recorded: more effective cell killing in H146 than that of CPT, floxuridine, and etoposide | Dose-dependent cell death | – | – | – | – | – | – | – | – | – | – | – | – | – | – | – | cell killing in H1693 cells, result in words (H1693 cells): cell killing response better than that of CPT; also recorded: more effective cell killing in H1693 than that of CPT, floxuridine, and etoposide; cell killing / dose-dependent cell death in HCT116 cells, result in words ([2]; listed as DIX-905): more effective in cell killing than that of CPT, 5-FU and Etoposide; cell death in H146 via Caspase activation (apoptotic pathway) [3]: time- and dose-dependent cell death; cell death in H1693 via Caspase activation (apoptotic pathway) [4]: time- and dose-dependent cell death |
| CC[C@@]1(O)C(=O)OCc2c1cc1n(c2=O)Cc2cc3ccccc3nc2-1 [CPT, Camptothecin] | – | Dose-dependent cell death | 65 | 51 | 24 | 96 | 76 | 11 | 13 | 5 | 3 | – | – | – | – | – | – | – |
| CC[C@@]1(OP(=O)(O)OC[C@H]2O[C@@H](n3cnc4c(N)ncnc43)C[C@@H]2O)C(=O)OCc2c1cc1n(c2=O)Cc2cc3ccccc3nc2-1 [Dix-904] | similarly to or even slightly better than that of CPT | higher than that CPT | – | – | – | 95 | 70 | 10 | – | – | – | 67 | 44 | 19 | 13 | 3 | 1 | – |
| CC[C@@]1(OP(=O)(O)OC[C@H]2O[C@@H](n3ccc(N)nc3=O)C[C@@H]2O)C(=O)OCc2c1cc1n(c2=O)Cc2cc3ccccc3nc2-1 [Dix-902] | similarly to or even slightly better than that of CPT | higher than that CPT | – | – | – | 87 | 68 | 9 | – | – | – | 66 | 43 | 20 | 15 | 4 | 2 | – |
| CC[C@@]1(OP(=O)(O)OC[C@H]2O[C@@H](n3cc(C)c(=O)[nH]c3=O)C[C@@H]2O)C(=O)OCc2c1cc1n(c2=O)Cc2cc3ccccc3nc2-1 [Dix-906] | similarly to or even slightly better than that of CPT | higher than that CPT | 64 | 45 | 21 | 90 | 71 | 8 | 14 | 4 | 3 | – | – | – | – | – | – | – |
